Results published in US5334456A, “Free-radical curable compositions” (priority 1992, dated 1994).
Where a name gives a salt, the structure may show the parent alone. Read-outs that look alike come from different tables or passages of the source.

Experiments:
[1] = not given; remark: listed apart in the source
[2] = Inhalation Kill (animals); assay type: in vivo; settings: Table XVI
Description: Toxicity tests were performed on commercially available (meth) acrylate oligomers and diluents and on commercially available vinyl ether and maleate diluents.

[3] = Viscosity (Brookfield viscometer); assay type: physicochemical; settings: 25° C., product as prepared
Description: The viscosity, expressed in pascal seconds (Pa s), was measured using a Brookfield Model RVTD viscometer operated in accordance with the instructions provided therewith. The temperature of each sample tested was 25° C.
The viscosity of the saturated ester oligomers having maleate end groups was determined utilizing a Brookfield RTV viscometer.

SMILES	Skin Irritation (Table XVI, max. = 8)	Eye Irritation ([1]; Table XVI, max. = 10)	Inhalation Kill [2]	viscosity [3]	viscosity ([3]; listed as Component 3)	Skin Irritation (in vivo)	Eye Irritation ([1]; in vivo)
C=CC(=O)OCCOc1ccccc1 [2-phenoxyethyl acrylate]	3	1	0 of 6	–	–	–	–
C=COCCCCOC(=O)/C=C\C(=O)OCC [Example 1, 4-vinyloxybutyl ethyl maleate]	–	–	–	about 36 cP	36 cP	–	–
CCOC(=O)/C=C\C(=O)OCC [Diethyl maleate]	mild	mild	–	–	–	–	–
C=CC(=O)OCCOCCOC(=O)C=C [Diethyleneglycol diacrylate]	5	9	0 of 6	–	–	–	–
C=CC(=O)OCC(C)(C)COC(=O)C=C [Neopentylglycol diacrylate]	5	8	1 of 6	–	–	–	–
COC(=O)/C=C\C(=O)OC [Dimethyl maleate]	–	–	–	–	–	5.47	moderate
C=CC(=O)OCC(CO)(COC(=O)C=C)COC(=O)C=C [Pentaerythritol triacrylate]	2	10	0 of 6	–	–	–	–
C=CC(=O)OCCCCCCOC(=O)C=C [1,6-hexanediol diacrylate]	3	2	0 of 6	–	–	–	–
C=CC(=O)OCCO [2-hydroxyethyl acrylate]	6	9	1 of 6	–	–	–	–
CCCCOC(=O)/C=C\C(=O)OCCCC [Dubutyl maleate]	mild	–	–	–	–	–	–
